IC50, inhibition and Activity data for twelve compounds are collected here from ChEMBL document CHEMBL4819130 (Bioorg Med Chem, 2021).

As a reminder, the IC50 is the concentration that gives 50% inhibition.

In data set [1] the target is T1, Cocaine esterase (Homo sapiens, UniProt O00748).
T1 sequence (O00748 whole entry): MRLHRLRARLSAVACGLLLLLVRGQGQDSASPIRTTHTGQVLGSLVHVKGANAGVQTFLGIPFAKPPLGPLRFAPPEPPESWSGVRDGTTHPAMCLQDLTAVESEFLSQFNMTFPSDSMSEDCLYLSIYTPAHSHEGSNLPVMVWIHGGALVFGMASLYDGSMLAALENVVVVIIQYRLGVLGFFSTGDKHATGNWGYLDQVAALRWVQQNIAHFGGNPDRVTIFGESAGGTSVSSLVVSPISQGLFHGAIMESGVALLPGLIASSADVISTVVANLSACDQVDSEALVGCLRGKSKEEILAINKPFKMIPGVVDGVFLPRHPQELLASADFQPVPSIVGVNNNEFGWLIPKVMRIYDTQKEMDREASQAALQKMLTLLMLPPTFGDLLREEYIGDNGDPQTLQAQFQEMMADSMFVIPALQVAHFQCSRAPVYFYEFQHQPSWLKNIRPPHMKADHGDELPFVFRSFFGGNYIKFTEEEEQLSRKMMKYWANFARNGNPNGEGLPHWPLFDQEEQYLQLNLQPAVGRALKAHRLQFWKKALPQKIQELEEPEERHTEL
Nature of the data set: Inhibition of CES2 in human liver microsomes assessed as reduction in substrate hydrolysis using fluorescein diacetate as substrate preincubated for 3 mins followed by substrate addition and measured after 20 mins by fluorescence analysis.

Data set [2] deals with 3T3-L1. Nature of the data set: Inhibition of adipogenesis in mouse 3T3-L1 cells assessed as reduction in lipid droplet formation at 10 uM incubated with compound for 72 hrs in presence of adipogenesis-inducing agent followed by culturing in normal medium in presence of compound for 48 hrs by Oil red O staining based analysis. Particulars: time 120.0 hrs. Format: functional, cell-based.

Data set [3] has as its system 3T3-L1. Briefly: Cytotoxicity against mouse 3T3-L1 cells assessed as reduction in cell viability at <40 uM after 48 hrs by CCK8 assay. Format: cell-based. The note with it: 3t3-l1, 48 h. For orientation: Tetrazolium assays rely on reduction of a dye to a coloured formazan, in cell work by metabolically active cells.
Data set [4] deals with Caco-2. Briefly: Cytotoxicity against human Caco-2 cells assessed as reduction in cell viability at <40 uM after 48 hrs by CCK8 assay. Format: cell-based. The note with it: caco-2, 48 h.
Data set [5] relates to HepG2. Nature of the data set: Cytotoxicity against human HepG2 cells assessed as reduction in cell viability at <40 uM after 48 hrs by CCK8 assay. The note with it: hepg2, 48 h. Format: cell-based.
The test system of data set [6] is 3T3-L1. Briefly: Inhibition of adipogenesis in mouse 3T3-L1 cells assessed as reduction in lipid droplet formation at 40 uM incubated with compound for 72 hrs in presence of adipogenesis-inducing agent followed by culturing in normal medium in presence of compound for 48 hrs by Oil red O staining based analysis. Format: functional, cell-based. The note with it: time 120.0 hrs.

Activity calls are given as the source filed them. The calls are words filed in the database; no cut-off is given here.

`O=C1C(Cc2ccccc2[N+](=O)[O-])C(c2ccccc2)=NN1c1ccccc1` (stereo unspecified): the half-inhibitory concentration (IC50) in data set [1] is 10.9 µM. On the same count and under the same terms, with `O=C1C(Cc2ccc(Br)cc2)C(c2ccccc2)=NN1c1ccccc1` (stereo unspecified) the figure was 8.24 µM; with `CCCCCCCC/C=C\CCCCCCCC(=O)OCC(O)COP(=O)(O)O` (stereo unspecified), 1.57 µM; with `COc1ccc(CC2C(=O)N(c3ccccc3)N=C2c2ccccc2)cc1` (stereo unspecified), 6.68 µM. On the same count and under the same terms, with `CCC1C(=O)N(c2ccccc2)N=C1c1ccccc1` (stereo unspecified) the figure was 9.04 µM; with `O=C1C(Cc2ccccc2)C(c2ccccc2)=NN1C1CCCCC1` (stereo unspecified), 9.12 µM; with `Cc1ccc(CC2C(=O)N(c3ccccc3)N=C2c2ccccc2)cc1` (stereo unspecified), 5.16 µM. On the same count and under the same terms, with `Cc1ccc(C2=NN(c3ccccc3)C(=O)C2Cc2ccccc2)cc1` (stereo unspecified) the figure was 3.82 µM; with `Cc1cccc(CC2C(=O)N(c3ccccc3)N=C2c2ccccc2)c1` (stereo unspecified), 7.11 µM; with `O=C1C(Cc2ccccc2)C(c2ccc(Br)cc2)=NN1c1ccccc1` (stereo unspecified), 6.19 µM. Take `Cc1ccc(CC2C(=O)N(C3CCCCC3)N=C2c2ccc(C)cc2)cc1` (stereo unspecified): the inhibition result in data set [2] and in data set [6] was “Active” throughout. Besides, the Activity entry in data set [3], in data set [4] and in data set [5] was “Non-Toxic” each time.

`C=CCC1C(=O)N(c2ccccc2)N=C1c1ccccc1` (stereo unspecified): the IC50 in data set [1] is 7.76 µM.
